Experimental data from patent US20070015937A1, “PROCESS FOR RECOVERY OF FLUORINATED CARBOXYLIC ACID SURFACTANTS FROM EXHAUST GAS” (priority 2005, published 2007).
Marks after values point to notes of the source that are not given here.

Experiment: Determination of bio-accumulation: urinary clearance pharmacokinetic study in rats
Conditions: oral gavage; for Compound-related Effects: clinical signs of toxicity and gross necropsy at 96 hours post-dose
[1] = no parent compound observed in the urine, based on elimination of the major metabolite C3F7—O—CHFCOO−, 73 micro Moles per kg
[2] = recovery of administered amount in urine after 96 h, 73 micro Moles per kg body weight, N=3
[3] = renal half-life, 73 micro Moles per kg body weight, N=3, urine by fluorine NMR, exponential least squares curve fitting

Row | % Recovery (96 h) [1] | T½ (h) [1] | % Recovery (96 h) [2] [%] | T½ [3] [h] | Compound | Compound-related Effects (73 micro Moles per kg) | T½ (h) [3]
1 | 65* % | 13* h | – | – | N.O=C(O)COC(F)(F)C(F)OC(F)(F)C(F)(F)C(F)(F)F (centres unmarked) [Compound 16, C3F7—O—CFH—CF2—O—CH2—COONH4] | – | –
2 | – | – | 50 | – | N.O=C(O)C(F)(F)OC(F)(F)C(F)(F)C(F)(F)OC(F)(F)F [Compound 4, CF3—(OCF2)3—OCF2—COONH4] | – | –
3 | – | – | 5 | 95 | CF3CF2CF2OCF(CF3)CF2OCF2COONH4 [Compound C-3, reference compound] | Hepatomegaly | –
4 | – | – | 73 | – | N.O=C(O)C(F)(F)OC(F)(F)C(F)(F)C(F)(F)OC(F)(F)F [Compound 1, CF3—O—(CF2)3—O—CF2—COONH4] | – | –
5 | – | – | 82 | 12 | N.O=C(O)C(F)(F)C(F)(F)OC(F)(F)C(F)(F)C(F)(F)F [Compound 8, C3F7—O—CF2—CF2—COONH4] | – | –
6 | – | – | 96 | 12 | N.O=C(O)C(F)(F)OC(F)(F)OC(F)(F)F [Compound 2, CF3—OCF2—O—CF2—COONH4] | – | –
7 | – | – | 42 | 31 | N.O=C(O)C(F)(F)C(F)(F)OC(F)(F)C(F)(F)C(F)(F)C(F)(F)F [Compound 9, C4F9—O—CF2—CF2—COONH4] | Hepatomegaly | –
8 | – | – | 32 | 24 | N.O=C(O)C(F)(F)C(F)(F)C(F)(F)C(F)(F)C(F)(F)OC(F)C(F)(F)F (centres unmarked) [Compound 14, CF3—CFH—O—(CF2)5—COONH4] | Hepatomegaly | –
9 | – | – | 95 | 11 | N.O=C(O)C(F)OC(F)(F)C(F)(F)C(F)(F)OC(F)(F)F (centres unmarked) [Compound 12, CF3—O—CF2—CF2—CF2—O—CHF—COONH4] | – | –
10 | – | – | 84 | 12 | N.O=C(O)C(F)(F)C(F)OC(F)(F)C(F)(F)C(F)(F)OC(F)(F)F (centres unmarked) [Compound 11, CF3—O—CF2—CF2—CF2—O—CHF—CF2—COONH4] | – | –
11 | – | – | 100 | 10 | N.O=C(O)C(F)(F)C(F)(F)OC(F)(F)C(F)(F)F [Compound 7, C2F5—O—CF2—CF2—COONH4] | – | –
12 | – | – | 97 | 11 | N.O=C(O)C(F)(F)OC(F)(F)C(F)(F)C(F)(F)F [Compound 5, C3F7—O—CF2—COONH4] | – | –
13 | – | – | 95 | 8 | N.O=C(O)C(F)(F)C(F)(F)C(F)(F)OC(F)C(F)(F)F (centres unmarked) [Compound 15, CF3—CFH—O—(CF2)3—COONH4] | – | –
14 | – | – | 94 | 11 | N.O=C(O)C(F)(F)C(F)OC(F)(F)C(F)(F)C(F)(F)F (centres unmarked) [Compound 13, C3F7—O—CFH—CF2COONH4] | – | –

Row | Compound | % Recovery (96 h) [1] | T½ (h) [1] | % Recovery (96 h) [2] [%] | T½ [3] [h] | Compound-related Effects (73 micro Moles per kg) | T½ (h) [3]
15 | N.O=C(O)C(F)(F)OC(F)(F)OC(F)(F)OC(F)(F)F [Compound 3, CF3—OCF2—OCF2—OCF2—COONH4] | – | – | 100 | 12 | – | –
16 | N.O=C(O)C(F)(F)C(F)(F)C(F)(F)C(F)(F)C(F)(F)C(F)(F)C(F)(F)F [Compound C-1, C7F15COONH4, reference compound] | – | – | 6 | – | Hepatomegaly | ˜550 h
17 | N.O=C(O)C(F)(F)C(F)(F)OC(F)(F)F [Compound 6, CF3—O—CF2—CF2—COONH4] | – | – | 100 | 11 | – | –
18 | N.O=C(O)C(F)(F)OC(F)(F)C(F)(F)OC(F)(F)C(F)(F)F [Compound 10, C2F5—O—CF2—CF2—O—CF2—COONH4] | – | – | 99 | 10 | – | –
